Test results reported in patent US10603357B2, “Therapeutic TREM-1 peptides” (Universite de Lorraine, priority 2004, dated 2020).

Columns and labels:
human monocytes = experiment: in vitro stimulation of monocytes: TNF-α, IL-1β and sTREM-1 release; assay type: cell-based; conditions: P5 or control peptide 10 to 100 ng/mL, rIL-10 500 U/mL
Description: For cell activation, primary monocytes were cultured in 24-well flat-bottom tissue culture plates in the presence of LPS (1 μg/mL). In some experiments this stimulus was provided in combination with P5 (10 to 100 ng/mL), control peptide (10 to 100 ng/mL) or rIL-10 (500 U/mL). To activate monocytes through TREM-1, an agonist anti-TREM-1 mAb (10 μg/mL) was added as indicated. Cell-free supernatants were analysed for production of TNF-α, IL-1β. and sTREM-1 by ELISA or immunodot. All experiments were performed in triplicate and data are expressed as means (SEM). • a: Media • b: P5 10 ng/mL • c: Anti-TREM-1 • d: LPS • e: LPS+Anti-TREM-1 • f: LPS+P5 10 ng/mL • g: LPS+P5 50 ng/mL • h: LPS+P5 100 ng/mL • i: LPS+IL10
Ten mL of peripheral blood samples were collected on EDTA-K from 5 healthy volunteer donors originating from laboratory staff. After dilution in RPMI (Life Technologies, Grand Island, N.Y.) v/v, blood was centrifuged for 30 min at room temperature over a Ficoll gradient (Amersham Pharmacia, Uppsala, Sweden) to isolate PBMC. The cells recovered above the gradient were washed and counted. In order to deplete the suspensions of lymphocytes, cells were then plated in 24-well flat-bottom tissue culture plates (Corning, Corning, N.Y.) at a concentration of 5×10^6/mL and allowed to adhere during 2 hours at 37° C. The resulting lymphocyte suspension was discarded and the adhering monocytic cells were maintained in a 5% CO2 incubator at 37° C. in complete medium (RPMI 1640, 0.1 mM sodium pyruvate, […], 50 μg/mL Streptomycin; Life Technologies) supplemented with 10% FCS (Invitrogen, Cergy, France).
For activation, monocytes were cultured in the presence of E. coli LPS (0111:B4, 1 μg/mL, Sigma-Aldrich, La Verpillière, France). Cell viability was assessed by trypan blue exclusion and by measuring lactate dehydrogenase release. In some experiments, this stimulus was given in combination with TNF-α (5 to 100 ng/mL, R&D Systems, Lille, France), IL-1β (5 to 100 ng/mL, R&D Systems), rIFN-γ (up to 100 U/mL, R&D Systems), rIL-10 (500 U/ml, R&D Systems) or up to 100 ng/mL of P5 or control peptide.
In order to activate monocytes through TREM-1, an anti-TREM-1 agonist monoclonal antibody (R&D Systems) was added as follows: flat-bottom plates were precoated with 10 μg/mL anti-TREM-1 per well. After thorough washing in phosphate buffered saline (PBS), the monocyte suspensions were added at a similar concentration as above. Some experiments were performed in the presence of protease inhibitors (PMSF and Protease Cocktail Inhibitor; Invitrogen). Cell-free supernatants were assayed for the production of TNF-α and IL-1β by ELISA according to the recommendations of the manufacturer (BD Biosciences, San Diego, USA). To address the effect of P5 on NF-κB activity in monocytes, an ELISA-based assay was performed (BD Mercury™ Transfactor Kit, BD Biosciences). Monocytes were cultured for 24 hours in the presence of E. coli LPS (O111:B4, 1 μg/mL), and/or an agonist anti-TREM-1 monoclonal antibody (10 μg/mL), and/or P5 (100 ng/mL). Whole-cell extracts were then prepared and levels of NF-κB p50 and p65 were determined according to the recommendations of the manufacturer. All experiments were performed in triplicate and data are expressed as means (SEM). Identification and Quantitation of sTREM-1 Release
Primary monocytes suspensions were cultured as described above. The cells were treated with E. coli LPS (0111:B4, 1 μg/mL) for 24 hours at 37° C. Cell-conditioned medium was submitted to Western-blotting using an anti-TREM-1 monoclonal antibody (R&D Systems) in order to confirm the presence of 27 kDa material recognized by anti-TREM-1. Soluble TREM-1 levels were measured by assessing the optical intensity of bands on immunodots by means of a reflectance scanner and the Quantity One Quantitation Software (Bio-Rad, Cergy, France) as reported elsewhere (18). […]

BALB/c mice = experiment: LPS-induced endotoxinemia in mice (Example 3); assay type: in vivo, mouse; conditions: for Serum IL-1β / Serum TNF-α / Serum sTREM-1: endotoxemic mice, 100 μg
Description: P5 (50 μg or 100 μg) or control vector was administered 60 min before LPS.
P5 (75 μg) or control vector was administered 4 or 6 hours after LPS as indicated. […]
After approval by the local ethical committee, male Balb/C mice (20 to 23 g) were randomly grouped and treated with E. coli LPS intraperitoneally (i.p.) in combination with P5 (in 500 μl normal saline) or control vector before or after LPS challenge. In some experiments, 5 μg of an anti TREM-1 monoclonal antibody was administered i.p. one hour after LPS injection. The viability of mice was examined every hour, or animals were sacrificed at regular intervals. Serum samples were collected by cardiac puncture and assayed for TNF-α and IL-1β by ELISA (BD Biosciences), and for sTREM-1 levels by immunodot.

[1] = pre-treatment by 100 μg, 2 and 4 hours

Sequence: LQVTDSGLYRCVIYHPP [P5]
- TNF-α and IL-1β production (release of inflammatory cytokines) in monocyte supernatant (human monocytes; LPS 1 μg/mL or LPS + anti-TREM-1 mAb): reduced, in a concentration-dependent manner
- release of sTREM-1 from monocytes cultured with LPS (human monocytes; LPS 1 μg/mL): increased
- protection against LD100 dose of LPS, delayed treatment (BALB/c mice; 75 μg, delayed up to 4 hours after LPS): significant protection
- clinical appearance of treated mice (BALB/c mice; LD100 of LPS): remained well groomed and active, had no diarrhoea, and were lively
- late death over one week (BALB/c mice; LD100 of LPS): No late death occurred
- Serum IL-1β (BALB/c mice; H2): 0.2 ± 0.1 ng/mL
- Serum TNF-α (BALB/c mice; H2): 2.4 ± 0.5 ng/mL
- Serum sTREM-1 (BALB/c mice; H2): 475 ± 37 ng/mL
- Serum IL-1β (BALB/c mice; H4): 0.9 ± 0.2 ng/mL
- Serum TNF-α (BALB/c mice; H4): 0.1 ± 0.1 ng/mL
- Serum sTREM-1 (BALB/c mice; H4): 243 ± 28 ng/mL
- increase of serum sTREM-1 levels compared to controls (BALB/c mice; [1]): 2 fold
- reduction of serum cytokines levels compared to controls (BALB/c mice; [1]): 30%
- protection from death (BALB/c mice; single dose (50 μg or 100 μg) 60 min before LD100 of LPS): prevented from death in a dose-dependent manner
